“Also recorded” adds a separate entry of the source. Read-outs that look alike come from different tables or passages of the source.
T1: 14-3-3γ (Homo sapiens, UniProt P61981)
T1 sequence (P61981 1-247): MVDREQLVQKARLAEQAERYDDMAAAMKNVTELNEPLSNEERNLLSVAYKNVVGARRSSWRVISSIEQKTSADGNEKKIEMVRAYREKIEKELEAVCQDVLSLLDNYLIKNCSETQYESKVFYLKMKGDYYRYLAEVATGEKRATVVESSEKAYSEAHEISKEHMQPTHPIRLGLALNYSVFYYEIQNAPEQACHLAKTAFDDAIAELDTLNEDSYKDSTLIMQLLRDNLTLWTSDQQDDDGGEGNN

B1: SLP76-SH2: 20 KDa phosphorylated SLP76 protein construct (pSer376), binding partner of 14-3-3γ (protein)
chain: MPGAFSESNSSFPQSASLPPYFSQGPSNRPPIRAEGRNFPLPLPNKPRPPSPAEEENSLNEEWYVSYITRPEAEAALRKINQDGTFLVRDSSKKTTTNPYVLMVLYKDKVYNIQIRYQKESQVYLLGTGLRGKEDFLSVSDIIDYFRKMPLLLIDGKNRGSRYQCTLTHAAGYP
modifications: phospho-Ser376 (in vitro by HPK1); His6-SUMO tag cleaved; AF647 amine-labelled in HTRF; the segment is inferred to span Ser376 and the C-terminal SH2 domain to t

Assays:
14-3-3γ/SLP76 [1] = molecular target: T2, 14-3-3γ/SLP76 (Homo sapiens, UniProt P61981+Q13094); assay: HTRF dose-response assay on 14-3-3γ/SLP76; assay type: binding; conditions: stabilisation; 14-3-3γ-Tb 1 nM, SLP76-AF647 600 nM, 5% DMSO; EC50 estimated from fit; read-out: HTRF EC50 14-3-3γ/SLP76
T2 sequence (Q13094 356-533, one chain of several): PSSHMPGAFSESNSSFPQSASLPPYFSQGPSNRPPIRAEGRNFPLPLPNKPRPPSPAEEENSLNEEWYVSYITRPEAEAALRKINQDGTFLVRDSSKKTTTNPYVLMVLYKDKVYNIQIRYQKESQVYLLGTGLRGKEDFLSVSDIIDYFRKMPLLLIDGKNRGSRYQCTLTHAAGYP
Experimental: 384-Well logistic plates were prefilled with 2 μL of compounds at 2 mM, 100% DMSO, except for columns 1, 2, 23 and 24. Columns 1, 2 were filled with 2 μL of DMSO while columns 23, 24 were filled with 2 μL of the 14-3-3 inhibitor R18 at 20 μM using a Multidrop Dispenser (ThermoScientific). Next, 40 μL of protein mixture containing Tb-labelled 14-3-3γ at 1 nM and AF647 labelled SLP76 at 600 nM in assay buffer (50 mM Tris pH 7.5, 150 mM NaCl, 5 mM MgCl2, 0.05% v/v Tween-20) were added using a Multidrop Dispenser (ThermoScientific). […] To perform the assay, 30 μL volumes were then transferred using a Biomek FX^P Automated Workstation (Beckman Coulter) into Corning 384-well 3574 assay plates. The plates were incubated at room temperature with gentle shaking for 4 h. Finally, the data were collected on a PHERAstar FSX plate reader (BMG Labtech) with an λex 337 nm, λem 665 nm and 620 nm HTRF filter setting. The data were exported in IDBS ActivityBase (IDBS) where they were normalised setting the R18 negative control as 100% inhibition and the DMSO control as 0%. Negative percentage values were therefore associated with a stabilisation of the 14-3-3γ/SLP76 interaction. The threshold of −20% inhibition (or 20% stabilisation) was chosen to select the hits to follow up. The selected hits were retested on 14-3-3γ/SLP76 and were also tested against an unrelated protein pair (IL-17/receptor) in a similar assay setup. […] All the assays were performed as described above.
(§1) 384 logistic plates were prefilled with 40 μL of compounds at 10 mM, 100% DMSO in column 3. Columns 1, 2 and 4 to 22 were filled with 20 μL of 100% DMSO with a Multidrop Dispenser (ThermoScientific). 2-Fold dilutions of the compounds were carried over from column 3 to 22, with a CyBio FeliX liquid handler (analytikjena). 2 μL of R18 peptide at 20 μM was added to columns 23 and 24 of the Corning 384-well 3574 final assay plates with a Multidrop Dispenser (ThermoScientific). 40 μL of protein mixture, containing Tb labelled 14-3-3γ at 1 nM and AF647 labelled SLP76 at 600 nM in assay buffer (50 mM Tris pH 7.5, 150 mM NaCl, 5 mM MgCl2, 0.05% v/v Tween-20) were added with a Multidrop Dispenser (ThermoScientific) into the Corning 384-well 3574 final assay plates. 2 μL of compounds along with the DMSO control were then transferred with a CyBio FeliX liquid handler (analytikjena) from the 384 logistic plates to the final Corning 384-well 3574 assay plates. […] The dose–response on the first 64 compounds was performed in singlet from a 500 μM top concentration. The repetition on the best 16 compounds was performed in duplicates from a 250 μM top concentration. A dose–response assay on an unrelated 14-3-3ζ/p27 HTRF protein pair was performed as described above. Incubation, data acquisition and normalisation were performed as described above. For EC50 estimation, the data were fitted with a “log(agonist) vs. response (three parameters)” model on GraphPad Prism version 8.1.1 for Windows, GraphPad Software, La Jolla California USA, www.graphpad.com. In the case of duplicates, each data point is the average of a duplicate measurement, standard deviation is reported as error bars.

14-3-3ζ/p27 = 14-3-3ζ/p27 (Homo sapiens, UniProt P46527+P63104); assay: HTRF dose-response assay on 14-3-3ζ/p27; assay type: binding; conditions: for EC50: stabilisation, same FRET pair, EC50 estimated from fit, read-out: HTRF EC50 14-3-3ζ/p27; for Selectivity between 14-3-3γ/SLP76 and 14-3-3ζ/p27 (in words): comparison of HTRF dose-responses
14-3-3ζ/p27, sequence (P63104 whole entry): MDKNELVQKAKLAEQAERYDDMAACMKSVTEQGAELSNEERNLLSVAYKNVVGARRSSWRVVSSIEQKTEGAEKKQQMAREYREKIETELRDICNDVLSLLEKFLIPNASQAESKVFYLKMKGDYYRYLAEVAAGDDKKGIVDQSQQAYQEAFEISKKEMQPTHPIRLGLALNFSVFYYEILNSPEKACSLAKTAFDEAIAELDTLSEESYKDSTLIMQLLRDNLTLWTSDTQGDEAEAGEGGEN
14-3-3ζ/p27, sequence (P46527 whole entry): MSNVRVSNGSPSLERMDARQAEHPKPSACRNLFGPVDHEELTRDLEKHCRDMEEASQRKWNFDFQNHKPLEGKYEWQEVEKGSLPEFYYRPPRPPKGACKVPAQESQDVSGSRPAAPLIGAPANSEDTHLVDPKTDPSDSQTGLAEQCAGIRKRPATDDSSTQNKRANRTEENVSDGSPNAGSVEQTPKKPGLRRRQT
Experimental: as §1

14-3-3γ/SLP76 [2] = molecular target: T2, 14-3-3γ/SLP76; assay: HTRF dose-ratio assay (SLP76 titration at fixed compound concentrations); assay type: binding
Experimental: Each protein titration was performed in the presence of a fixed concentration of compound. […] Proteins and R18 peptide were diluted from their stock concentration in assay buffer (50 mM Tris pH 7.5, 150 mM NaCl, 5 mM MgCl2, 0.05% v/v Tween-20). Incubation and data acquisition were performed as described above. […] For data analysis the background FRET signal generated by the titration in the presence of R18 10 μM was removed from all values. KD values for each curve were estimated and comparison with the different concentration of compounds were made. The data were fitted with a “One site – specific” model on GraphPad Prism version 8.1.1 for Windows, GraphPad Software, La Jolla California USA, www.graphpad.com. Each data point is the average of a duplicate measurement, standard deviation is reported as error bars.

14-3-3γ/SLP76 [3] = molecular target: T2, 14-3-3γ/SLP76; assay: Orthogonal SPR assay, compound flowed with SLP76 over immobilised 14-3-3γ; assay type: binding; design: key to SPR RU (%) mass increase 14-3-3γ/SLP76: Ns: no stabilisation observed in SPR; conditions: for Stabilisation in SPR (in words): off-rate / mass on chip versus runs without compound; for SPR RU (%) mass increase 14-3-3γ/SLP76: percentage of SLP76 remained on the chip after the dissociation phase (+240 s)
Experimental: Of the 16 hit compounds 13 were tested in an orthogonal SPR assay in which each compound was flowed with SLP76 over 14-3-3γ immobilised on the chip. Runs at different concentrations of compound were compared to the runs in absence of compound. […] The effect of the compounds on 14-3-3γ/SLP76 was measured by calculating the percentage of SLP76 remained on the chip after the dissociation phase and immediately before: RU (%) = RU 5 s before dissociation/RU +240 s after dissociation. Dose–response curves were extrapolated from those sensorgrams plotting the RU (%) mass increase over the increase in compound concentrations.
SPR experiments were performed on a Biacore T200 (Cytiva). The Sensor Chip NTA was validated as previously reported by Soini et al.[63] A DMSO tolerance at 2% and 5% was performed in the same way (Fig. S1 ^†).
For compounds testing, the compounds were preincubated with SLP76, in final DMSO concentration of 5%. The compounds were tested at a single concentration of 100 μM and at multiple concentrations following a 3-fold dilution from a top concentration of 100 μM with SLP76 at the saturation concentration of 250 nM. A second set of experiments were performed at multiple concentrations of compound following a 3-fold dilution from a top concentration of 200 μM with SLP76 around the KD concentration of 40 nM. The SLP76/compound mixtures were flowed over the immobilised 14-3-3γ at 30 μL min^−1 for 180 s before allowing dissociation for 5 minutes. After every cycle, the chip was washed with EDTA and Ni^2+ and 14-3-3γ reinjected for the next cycle. The compound effects were measured by calculating the percentage of SLP76 remained on the chip after the dissociation phase and right before: RU (%) = RU 5 s before dissociation/RU +240 s after dissociation. RU response points relative to +240 s after dissociation were also plotted and an apparent EC50 was estimated. The data were fitted with a “One site – specific” model on GraphPad Prism version 8.1.1 for Windows, GraphPad Software, La Jolla California USA, www.graphpad.com.

14-3-3γ [4] = molecular target: T1, 14-3-3γ; assay: SPR binding assay of the SLP76-SH2 construct to 14-3-3γ; conditions: in the presence of 5% DMSO, extrapolated from binding curve
Description: Fig. 1 Assay set-up for the 14-3-3γ/SLP76 PPI. a) SPR binding assay of the SLP76-SH2 construct binding to 14-3-3γ in the presence of 5% DMSO. The KD value has been extrapolated from the binding curve reported on the right of the sensorgrams. b) HTRF assay set-up. The two proteins of interest, SLP76 and 14-3-3γ have been labelled with […], to generate a suitable matched pair of donor molecule (Tb) and acceptor molecule (AF647). The donor molecule, Tb labelled 14-3-3, is excited at the proper wavelength of 337 nm. When the acceptor is not in the proximity (no binding) no signal is detected. When SLP76 bound to 14-3-3 brings the acceptor molecule AF647 close to the donor, energy transfer occurs between the fluorophores pair. A radiation with the wavelength of 665 nm is consequently emitted to generate a read-out (665/620 nm). All HTRF protein systems used in this work are reported in the legend.
SPR experiments were performed on a Biacore T200 (Cytiva). The Sensor Chip NTA was validated as previously reported by Soini et al.[63] A DMSO tolerance at 2% and 5% was performed in the same way (Fig. S1 ^†). […]
confirming a DMSO tolerance of the 14-3-3γ/SLP76-SH2 system in an SPR context. A KD value calculated by […]

14-3-3γ [5] = molecular target: T1, 14-3-3γ; design: method as in Soini et al.; conditions: SPR, in absence of DMSO; ref Soini et al.; read-out: KD of SLP76-SH2 binding to 14-3-3γ; cited from earlier work

Molecule | EC50 (14-3-3γ/SLP76 [1]) [µM] | Stabilisation of 14-3-3ζ/p27 in HTRF (in words) (14-3-3ζ/p27) | EC50 (14-3-3ζ/p27) [µM] | KD improvement in the SLP76 HTRF assay (14-3-3γ/SLP76 [2]) | Stabilisation in SPR (in words) (14-3-3γ/SLP76 [3]) | SPR RU (%) mass increase 14-3-3γ/SLP76 (14-3-3γ/SLP76 [3]) | Selectivity between 14-3-3γ/SLP76 and 14-3-3ζ/p27 (in words) (14-3-3ζ/p27) | Kd (14-3-3γ [4]) [µM] | Kd (14-3-3γ [5]) [µM]
c1cc(-c2nnc3scnn23)ccn1 [Compound 7, 3-pyridin-4-yl-[1,2,4]triazolo[3,4-b][1,3,4]thiadiazole] | 5.3 ± 1.9 | no measurable modulation | > 250 | fourfold | orthogonally confirmed by SPR; also recorded: strong concentration dependence in off-rate | 57.7% | – | – | –
COc1ccc(C(=O)N2C[C@@H]3CN(CCO3)C(=O)[C@@H]3C[C@@H](CN3Cc3cccnc3)NC(=O)C[C@@H]3O[C@H](C2)[C@@H](O)[C@H]3O)cc1 [Compound 3, (3S,6S,10S,11R,12S,13R,17R)-11,12-dihydroxy-15-(4-methoxybenzoyl)-4-(pyridin-3-ylmethyl)-18,22-dioxa-1,4,7,15-tetrazatetracyclo[15.3.1.13,6.110,13]tricosane-2,8-dione] | 14.4 ± 1.9 | – | > 250 | 10 fold | orthogonally confirmed by SPR; also recorded: orthogonally confirmed in the SPR assay | 66.9% | selective for the 14-3-3γ/SLP76 system | – | –
CC1=CCC2COC(C[N+]3(C)CCCCC3)C1C2 (stereo not shown) [Compound 5, 1-methyl-1-[(8-methyl-3-oxabicyclo[3.3.1]non-7-en-2-yl)methyl]piperidin-1-ium] | 71.1 ± 23.9 | – | > 250 | – | no observable stabilisation effect | Ns ^d | selective over 14-3-3ζ/p27 | – | –
B1 | – | – | – | – | – | – | – | 0.0279 ± 0.0015 | 0.043

— PMC8459327, “Identification of molecular glues of the SLP76/14-3-3 protein–protein interaction” (RSC Medicinal Chemistry, 2021)
